Measured values: US11339128B2 (Firmenich Incorporated, priority 2014, dated 2022)

Biological target: T1, T1R2/T1R3 taste receptor (Homo sapiens, UniProt Q7RTX0+Q8TE23)
T1 sequence (Q8TE23 20-839): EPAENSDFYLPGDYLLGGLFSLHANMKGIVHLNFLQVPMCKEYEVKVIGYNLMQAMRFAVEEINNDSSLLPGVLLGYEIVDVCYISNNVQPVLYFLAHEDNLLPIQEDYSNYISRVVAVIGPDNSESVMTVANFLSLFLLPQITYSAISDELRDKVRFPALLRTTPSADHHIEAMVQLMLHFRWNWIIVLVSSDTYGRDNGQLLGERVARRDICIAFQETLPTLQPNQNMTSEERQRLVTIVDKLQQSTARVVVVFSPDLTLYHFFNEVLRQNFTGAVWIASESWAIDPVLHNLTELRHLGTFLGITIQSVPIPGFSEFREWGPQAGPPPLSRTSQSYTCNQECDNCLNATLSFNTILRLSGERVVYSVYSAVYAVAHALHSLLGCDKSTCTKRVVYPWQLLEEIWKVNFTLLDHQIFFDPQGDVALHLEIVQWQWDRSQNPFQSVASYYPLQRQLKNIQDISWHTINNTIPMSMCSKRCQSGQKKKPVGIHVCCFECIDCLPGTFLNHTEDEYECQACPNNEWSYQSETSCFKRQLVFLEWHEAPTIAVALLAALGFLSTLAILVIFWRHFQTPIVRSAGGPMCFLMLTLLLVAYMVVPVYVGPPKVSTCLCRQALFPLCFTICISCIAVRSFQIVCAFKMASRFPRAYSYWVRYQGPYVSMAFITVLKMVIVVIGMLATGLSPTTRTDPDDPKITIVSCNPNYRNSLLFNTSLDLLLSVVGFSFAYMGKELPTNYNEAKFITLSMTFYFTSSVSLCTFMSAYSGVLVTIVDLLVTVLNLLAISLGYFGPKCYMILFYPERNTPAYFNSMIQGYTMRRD
T1 sequence (Q7RTX0 21-852): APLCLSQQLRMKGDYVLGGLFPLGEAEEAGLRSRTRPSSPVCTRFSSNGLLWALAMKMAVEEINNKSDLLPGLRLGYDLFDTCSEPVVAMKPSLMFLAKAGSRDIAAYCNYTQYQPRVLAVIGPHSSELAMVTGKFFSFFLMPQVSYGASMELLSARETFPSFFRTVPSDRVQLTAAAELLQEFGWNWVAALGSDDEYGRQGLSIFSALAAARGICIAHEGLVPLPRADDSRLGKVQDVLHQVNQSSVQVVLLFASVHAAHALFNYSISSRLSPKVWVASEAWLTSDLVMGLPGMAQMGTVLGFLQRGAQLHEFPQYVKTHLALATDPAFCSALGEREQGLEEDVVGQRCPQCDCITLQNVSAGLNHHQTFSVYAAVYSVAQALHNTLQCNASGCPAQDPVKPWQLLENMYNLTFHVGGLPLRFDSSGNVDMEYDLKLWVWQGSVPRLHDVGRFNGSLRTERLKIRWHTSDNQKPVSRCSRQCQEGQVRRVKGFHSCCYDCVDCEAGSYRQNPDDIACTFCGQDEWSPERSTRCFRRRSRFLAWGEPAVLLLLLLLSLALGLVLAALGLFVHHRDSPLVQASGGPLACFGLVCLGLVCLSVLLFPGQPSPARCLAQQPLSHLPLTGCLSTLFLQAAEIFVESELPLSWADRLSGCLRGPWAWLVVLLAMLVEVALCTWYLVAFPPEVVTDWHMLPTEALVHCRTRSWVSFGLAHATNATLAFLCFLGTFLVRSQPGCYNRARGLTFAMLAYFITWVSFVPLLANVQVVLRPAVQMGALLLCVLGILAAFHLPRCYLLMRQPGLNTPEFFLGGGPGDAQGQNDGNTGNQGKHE
Assay: Receptor-based assay: sweetener EC50 enhancement ratio with and without test compound
Format: cell-based
Settings: for Sucrose Enhancement EC50 Ratio: sweetener sucrose; for Sucralose Enhancement EC50 Ratio: sweetener sucralose; for Fructose Enhancement EC50 Ratio: sweetener fructose
Protocol: Potencies (EC50 values) for the sweeteners sucrose, sucralose, and fructose were measured against the T1R2/T1R3 taste receptor. EC50 was determined using the sweetener alone and in the presence of 1 μM, 3 μM, 10 μM, or 50 μM of test compound. EC50 ratios were calculated by the ratio of potency with and without the test compound. An “A” value indicates an enhancement ratio of greater than 1 and less than 10. A “B” value indicates an enhancement ratio from 10 to 20. A “C” value indicates an enhancement ratio greater than 20.

SMILES	Sucrose Enhancement EC50 Ratio (1 μM test compound)	Sucrose Enhancement EC50 Ratio (3 μM test compound)	Sucrose Enhancement EC50 Ratio (10 μM test compound)	Sucralose Enhancement EC50 Ratio (3 μM test compound)	Fructose Enhancement EC50 Ratio (10 μM test compound)	Sucralose Enhancement EC50 Ratio (10 μM test compound)	Fructose Enhancement EC50 Ratio (50 μM test compound)
Cc1nc2cccc(O[C@H]3CC[C@H](NC(=O)CN4CCOCC4)CC3)c2c(N)c1C(=O)O.Cl [Compound 600, 4-Amino-2-methyl-5-((trans-4-(2-morpholinoacetamido)cyclohexyl)oxy) quinolone-3-carboxylic acid (HCl)]	B (an enhancement ratio from 10 to 20)	C (an enhancement ratio greater than 20)					
CCCc1nc2cccc(OC3CCC(C)(C)CC3)c2c(N)c1C(=O)O [Compound 208]	A (an enhancement ratio of greater than 1 and less than 10)	A (an enhancement ratio of greater than 1 and less than 10)	A (an enhancement ratio of greater than 1 and less than 10)				
COc1ccnc(N[C@H]2CC[C@H](Oc3cccc4nc(C)c(C(=O)O)c(N)c34)CC2)n1 [Compound 707]	A (an enhancement ratio of greater than 1 and less than 10)	A (an enhancement ratio of greater than 1 and less than 10)	B (an enhancement ratio from 10 to 20)	A (an enhancement ratio of greater than 1 and less than 10)	A (an enhancement ratio of greater than 1 and less than 10)	B (an enhancement ratio from 10 to 20)	A (an enhancement ratio of greater than 1 and less than 10)
Cc1nc2cccc(O[C@H]3CC[C@H](NC(=O)CO[C@H]4CC[C@H](C)CC4)CC3)c2c(N)c1C(=O)O [Compound 312]	A (an enhancement ratio of greater than 1 and less than 10)	A (an enhancement ratio of greater than 1 and less than 10)	B (an enhancement ratio from 10 to 20)				
Cc1nc2cccc(O[C@H]3CC[C@H](NC(=O)COCC4CCC4)CC3)c2c(N)c1C(=O)O [Compound 326]	B (an enhancement ratio from 10 to 20)						
CCc1nc2cccc(OC3CCC(C)(C)CC3)c2c(N)c1C(=O)O [Compound 203]	A (an enhancement ratio of greater than 1 and less than 10)	A (an enhancement ratio of greater than 1 and less than 10)	B (an enhancement ratio from 10 to 20)				
CCCCOCC(=O)N[C@H]1CC[C@H](Oc2cccc3nc(C)c(C(=O)O)c(N)c23)CC1 [Compound 335]	B (an enhancement ratio from 10 to 20)	C (an enhancement ratio greater than 20)		C (an enhancement ratio greater than 20)			
Cc1nc2cccc(O[C@H]3CC[C@H](NC(=O)CO[C@@H]4C[C@H](C)CC[C@H]4C(C)C)CC3)c2c(N)c1C(=O)O [Compound 328]	A (an enhancement ratio of greater than 1 and less than 10)	A (an enhancement ratio of greater than 1 and less than 10)	C (an enhancement ratio greater than 20)				
Cc1nc2cccc(O[C@H]3CC[C@H](NC(=O)COCC4CC4)CC3)c2c(N)c1C(=O)O [Compound 313]	A (an enhancement ratio of greater than 1 and less than 10)	C (an enhancement ratio greater than 20)	A (an enhancement ratio of greater than 1 and less than 10)				
Cc1nc2cccc(O[C@H]3CC[C@H](Nc4cnccn4)CC3)c2c(N)c1C(=O)O [Compound 713]	A (an enhancement ratio of greater than 1 and less than 10)	B (an enhancement ratio from 10 to 20)	B (an enhancement ratio from 10 to 20)	A (an enhancement ratio of greater than 1 and less than 10)	A (an enhancement ratio of greater than 1 and less than 10)	B (an enhancement ratio from 10 to 20)	A (an enhancement ratio of greater than 1 and less than 10)
CNCC(=O)N[C@H]1CC[C@H](Oc2cccc3nc(C)c(C(=O)O)c(N)c23)CC1 [Compound 402]	A (an enhancement ratio of greater than 1 and less than 10)	A (an enhancement ratio of greater than 1 and less than 10)	B (an enhancement ratio from 10 to 20)		A (an enhancement ratio of greater than 1 and less than 10)	A (an enhancement ratio of greater than 1 and less than 10)	
Cc1nc2cccc(O[C@H]3CC[C@H](Nc4ccccn4)CC3)c2c(N)c1C(=O)O [Compound 701, 4-Amino-2-methyl-5-((trans-4-(pyridin-2-ylamino)cyclohexyl)oxy) quinoline-3-carboxylic acid]	A (an enhancement ratio of greater than 1 and less than 10)	B (an enhancement ratio from 10 to 20)	B (an enhancement ratio from 10 to 20)	C (an enhancement ratio greater than 20)		C (an enhancement ratio greater than 20)	
COCC(=O)NC[C@H]1CC[C@H](Oc2cccc3nc(C)c(C(=O)O)c(N)c23)CC1 [Compound 601]	A (an enhancement ratio of greater than 1 and less than 10)	C (an enhancement ratio greater than 20)	C (an enhancement ratio greater than 20)		A (an enhancement ratio of greater than 1 and less than 10)		
CCC(CC)OCC(=O)N[C@H]1CC[C@H](Oc2cccc3nc(C)c(C(=O)O)c(N)c23)CC1 [Compound 341]	A (an enhancement ratio of greater than 1 and less than 10)	B (an enhancement ratio from 10 to 20)		A (an enhancement ratio of greater than 1 and less than 10)			
CO[C@H]1CC[C@H](Oc2cccc3nc(C)c(C(=O)O)c(N)c23)CC1 [Compound 105]	A (an enhancement ratio of greater than 1 and less than 10)	A (an enhancement ratio of greater than 1 and less than 10)	C (an enhancement ratio greater than 20)				
CCc1nc2cccc(O[C@H]3CC[C@H](COC)CC3)c2c(N)c1C(=O)O [Compound 205]	A (an enhancement ratio of greater than 1 and less than 10)	B (an enhancement ratio from 10 to 20)	B (an enhancement ratio from 10 to 20)			B (an enhancement ratio from 10 to 20)	
Cc1nc2cccc(O[C@H]3CC[C@H](C(C)(C)C)CC3)c2c(N)c1C(=O)O [Compound 104]	A (an enhancement ratio of greater than 1 and less than 10)	C (an enhancement ratio greater than 20)					
